The record followed here is patent publication US20250084063A1 (Incyte Corporation, priority 2023, published 2025).

Assay [1] addresses T1, MRGPRX2 (Homo sapiens, UniProt Q96LB1).
T1 sequence (Q96LB1 1-330): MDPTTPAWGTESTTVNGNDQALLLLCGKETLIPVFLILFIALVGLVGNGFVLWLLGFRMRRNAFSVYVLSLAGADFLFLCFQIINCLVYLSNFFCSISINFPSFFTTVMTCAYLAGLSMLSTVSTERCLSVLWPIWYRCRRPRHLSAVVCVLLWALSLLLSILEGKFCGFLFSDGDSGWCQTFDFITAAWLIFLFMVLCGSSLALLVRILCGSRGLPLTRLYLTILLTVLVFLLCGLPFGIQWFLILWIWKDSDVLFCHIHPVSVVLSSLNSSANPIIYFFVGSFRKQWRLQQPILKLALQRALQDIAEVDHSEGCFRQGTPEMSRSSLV
Description: MRGPRX2 IP1 HTRF assay. Also noted: host or cells: CHO-K1. Type of assay: cell-based. The note with it: CHO-K1 cells stably expressing human MRGPRX2; IP1 accumulation, agonist Cortistatin 14 1 μM. The source says:
Example B: MRGPRX2 IP1 HTRF Assay
This assay measures compound inhibition of myo-Inositol 1 phosphate (IP1) accumulation in CHO-K1 cells. Chinese hamster ovary (CHO-K1) cells stably expressing human MRGPRX2 were purchased from GenScript (Piscataway, NJ).
For the HTRF IP1 determination, an IP-One GqKit (Perkin Elmer Cisbio, Waltham, MA), which includes all reagents and buffers in this protocol, was used. The cells were maintained in culture medium (Ham's F-12K) containing 10% (v/v) FBS, and 200 μg/mL Zeocin. For the assay, the cells were harvested and resuspended in culture medium with 2% FBS and without Zeocin, then were passed through a 40 μm filter. Cells were added at 20000 cells in a 5 μL/well to a 384-well white small volume cell culture plate (Greiner VWR, Radnor, PA) which contained 50 nL/well of test compound serially diluted at a selected concentration range in DMSO. 5 μL/well of prepared 2× Stimulation Buffer2 was then added to plates and was incubated at 37° C. with 5% CO2 for 1 h. 5 μL/well of agonist Cortistatin 14 (Bio-TechneR&D Systems, Minneapolis, MN) in 1× Stimulation Buffer 2, for a 1 μM final concentration, was then added to plates and incubated at 37° C. with 5% CO2 for 1 h. 6 μL/well of 1:20 diluted Detection Reagent Mix (d2 and Cryptate) was added to the plates and incubated for 1 h in the dark. Plates were read on the PHERAstar microplate reader (BMG Labtech Cary, NC) to determine the HTRF ratio of the acceptor and donor emission signals. The IP1 concentrations were calculated from a standard curve following the IP-One GQ kit instructions. Wells with DMSO only and wells with high concentration of reference antagonist were used as controls for normalization. Compound IC50 curves were globally fitted with 3- or 4-parameter Hill equation in a Genedata Screener (Genedata Basel, Switzerland).
A general note: In TR-FRET formats the signal depends on donor and acceptor labels being close together.

Assay [2] addresses T1, MRGPRX2. The assay is described as follows: MRGPRX2 FLIPR calcium mobilization assay. Type of assay: cell-based. Also noted: host or cells: CHO-K1. As to conditions: CHO-K1 cells stably expressing human MRGPRX2; Ca2+ release, agonist Cortistatin-14 at EC80. The protocol: Example A. MRGPRX2 FLIPR Calcium Mobilization Assay
Chinese hamster ovary (CHO-K1) cells stably expressing human MRGPRX2 were purchased from Genescript (Piscataway, NJ). The cells were maintained in culture medium (Ham's F-12K) containing 10% (v/v) FBS, 200 μg/mL Zeocin, 100 units/mL penicillin G and 100 μg/mL streptomycin (Life Technologies, Carlsbad, CA). For the assay, the cells were harvested and resuspended with culture medium without Zeocin before plating at 8000 cells per well in 20 μL in 384-well black clear bottom cell culture plates (VWR, Radnor, PA). After 24 h culture at 37° C. and 5% CO2, the cells were loaded with 20 μL/well of calcium dye (FLIPR Calcium 6 Assay Kit, Molecular Devices, San Jose, CA) diluted in loading buffer (1×Hank's Balanced Salt Solution (HBSS), 5 mM probenecid, 20 mM 4-(2-hydroxyethyl)-1-piperazineethanesulfonic acid (HEPES), pH 7.4, VWR, Radnor, PA) followed with 45 min incubation at 37° C. and 40 min at room temperature in the dark. Cells were then treated with the addition of 10 uL/well test compounds with a range of increasing concentrations diluted in the assay buffer (1×HBSS, 20 mM HEPES, pH 7.4, VWR, Radnor, PA) with FLIPR Penta (Molecular Devices. San Jose, CA) and incubated for 30 min. at room temperature. Ca^2+ release was measured with FLIPR Penta with 10 seconds basal fluorescence measurement, then 12.5 μL of 5× agonist Cortistatin-14 (Tocris, Minneapolis, MN) at final concentration corresponding to the EC80 were added followed with continued fluorescence signal monitoring for an additional 110 seconds. The base line adjusted (median of first 10s base line) max value of the Relative Fluorescence Unit (RFU) was plotted against compound concentrations. Wells with no compound were served as the positive controls, and wells with high concentration of reference antagonist were used as negative controls. IC50 curves were globally fitted with 3- or 4-parameter Hill equation in a Genedata Screener (Genedata Basel, Switzerland).
Background: Calcium flux is commonly read through the fluorescence of an indicator in the cells.

For the compound `NC(=O)N1CCC(CNc2cc(C(F)(F)F)nc3ccc(Cl)cc23)(c2ccccc2)CC1` [Example 13, 4-(((6-Chloro-2-(trifluoromethyl)quinolin-4-yl)amino)methyl)-4-phenylpiperidine-1-carboxamide], the IC50 on MRGPRX2 [1] and at MRGPRX2 [2] was 0.1 to 100 nM in each case. `CN1CCC(CNc2cc(C(F)(F)F)nc3ccc(Cl)cc23)(c2ccccc2)CC1` [Example 15, 6-Chloro-N-((1-methyl-4-phenylpiperidin-4-yl)methyl)-2-(trifluoromethyl)quinolin-4-amine]: the IC50 on MRGPRX2 [1] and on MRGPRX2 [2] was 0.1 to 100 nM throughout. `NS(=O)(=O)N1CC(CNc2cc(C(F)(F)F)nc3ccc(Cl)cc23)(c2ccc(Cl)cc2)C1` [Example 33, 3-(((6-Chloro-2-(trifluoromethyl)quinolin-4-yl)amino)methyl)-3-(4-chlorophenyl)azetidine-1-sulfonamide]: the IC50 at MRGPRX2 [1] and at MRGPRX2 [2] was 0.1 to 100 nM in each case. As for `NS(=O)(=O)N1CC(CNc2cc(C(F)(F)F)nc3ccc(Cl)cc23)(c2ccc(F)c(F)c2)C1` [Example 34, 3-(((6-Chloro-2-(trifluoromethyl)quinolin-4-yl)amino)methyl)-3-(3,4-difluorophenyl)azetidine-1-sulfonamide], the IC50 on MRGPRX2 [1] and on MRGPRX2 [2] was 0.1 to 100 nM each time. Regarding `NS(=O)(=O)N1CC(CNc2cc(C(F)(F)F)nc3ccc(Cl)cc23)(c2ccnc(Cl)c2)C1` [Example 35, 3-(((6-Chloro-2-(trifluoromethyl)quinolin-4-yl)amino)methyl)-3-(2-chloropyridin-4-yl)azetidine-1-sulfonamide], the IC50 at MRGPRX2 [1] and at MRGPRX2 [2] was 0.1 to 100 nM throughout. Consider `NS(=O)(=O)N1CC(CNc2cc(C(F)(F)F)nc3ccc(Cl)cc23)(n2cc(Cl)cn2)C1` [Example 36, 3-(4-Chloro-1H-pyrazol-1-yl)-3-(((6-chloro-2-(trifluoromethyl)quinolin-4-yl)amino)methyl)azetidine-1-sulfonamide], for which the IC50 at MRGPRX2 [1] and at MRGPRX2 [2] was 0.1 to 100 nM throughout.

On to `NC(=O)N1CC(CNc2cc(C(F)(F)F)nc3ccc(Cl)cc23)(c2ccc(F)cc2)C1` [Example 39, 3-(((6-Chloro-2-(trifluoromethyl)quinolin-4-yl)amino)methyl)-3-(4-fluorophenyl)azetidine-1-carboxamide], for which the IC50 at MRGPRX2 [1] and at MRGPRX2 [2] was 0.1 to 100 nM each time. Regarding `NC(=O)N1CC(CNc2cc(C(F)(F)F)nc3ccc(Cl)cc23)(c2ccccc2)C1` [Example 40, 3-(((6-Chloro-2-(trifluoromethyl)quinolin-4-yl)amino)methyl)-3-phenylazetidine-1-carboxamide], the IC50 on MRGPRX2 [1] and at MRGPRX2 [2] was 0.1 to 100 nM each time. For `NC(=O)N1CC(CNc2cc(C(F)(F)F)nc3ccc(Cl)cc23)(c2ccnc(Cl)c2)C1` [Example 42, 3-(((6-Chloro-2-(trifluoromethyl)quinolin-4-yl)amino)methyl)-3-(2-chloropyridin-4-yl)azetidine-1-carboxamide], the IC50 at MRGPRX2 [1] and on MRGPRX2 [2] was 0.1 to 100 nM each time.

Turning to `CNC(=O)N1CC(CNc2cc(C(F)(F)F)nc3ccc(Cl)cc23)(c2ccccc2)C1` [Example 48, 3-(((6-Chloro-2-(trifluoromethyl)quinolin-4-yl)amino)methyl)-N-methyl-3-phenylazetidine-1-carboxamide], the IC50 at MRGPRX2 [1] and on MRGPRX2 [2] was 0.1 to 100 nM throughout.

Consider `Fc1ccc(C2(CNc3cc(C(F)(F)F)nc4ccc(Cl)cc34)COC2)cc1` [Example 50, 6-Chloro-N-((3-(4-fluorophenyl)oxetan-3-yl)methyl)-2-(trifluoromethyl)quinolin-4-amine], for which the IC50 on MRGPRX2 [1] and on MRGPRX2 [2] was 0.1 to 100 nM each time. `CNC(=O)N1CC(CNc2cc(C(F)(F)F)nc3ccc(Cl)cc23)(c2ccc(F)cn2)C1` [Example 51, 3-(((6-Chloro-2-(trifluoromethyl)quinolin-4-yl)amino)methyl)-3-(5-fluoropyridin-2-yl)-N-methylazetidine-1-carboxamide]: the IC50 on MRGPRX2 [1] and at MRGPRX2 [2] was 0.1 to 100 nM in each case. Consider `CNC1CCC(CNc2cc(C(F)(F)F)nc3ccc(Cl)cc23)(c2ccccc2)C1` (stereo not shown) [Example 55, 6-Chloro-N-((3-(methylamino)-1-phenylcyclopentyl)methyl)-2 (trifluoromethyl)quinolin-4-amine], for which the IC50 at MRGPRX2 [1] and at MRGPRX2 [2] was 0.1 to 100 nM each time. Consider `Cc1ccc2nc(C(F)(F)F)cc(NCC3(c4ccc(F)cn4)CN(C(N)=O)C3)c2c1` [Example 56, 3-(5-Fluoropyridin-2-yl)-3-(((6-methyl-2-(trifluoromethyl)quinolin-4-yl)amino)methyl)azetidine-1-carboxamide], for which the results for the 50% inhibitory concentration (IC50) on MRGPRX2 [1] and at MRGPRX2 [2] were 100 to 1000 nM and 0.1 to 100 nM, respectively. In the case of `NC(=O)N1CC(CNc2cc(C(F)(F)F)nc3cc(Cl)ccc23)(c2ccc(F)cn2)C1` [Example 57, 3-(((7-Chloro-2-(trifluoromethyl)quinolin-4-yl)amino)methyl)-3-(5-fluoropyridin-2-yl)azetidine-1-carboxamide], the IC50 (commonly the point on the concentration scale where inhibition reaches its midpoint) on MRGPRX2 [2] is 0.1 to 100 nM. Turning to `N#Cc1ccc2nc(C(F)(F)F)cc(NCC3(c4ccc(F)cn4)CN(C(N)=O)C3)c2c1` [Example 58, 3-(((6-Cyano-2-(trifluoromethyl)quinolin-4-yl)amino)methyl)-3-(5-fluoropyridin-2-yl)azetidine-1-carboxamide], the 50% inhibitory concentration (IC50) on MRGPRX2 [1] and at MRGPRX2 [2] was 100 to 1000 nM in each case. In the case of `NC(=O)N1CC(CNc2cc(C(F)(F)F)nc3cccc(F)c23)(c2ccc(F)cn2)C1` [Example 60, 3-(((5-Fluoro-2-(trifluoromethyl)quinolin-4-yl)amino)methyl)-3-(5-fluoropyridin-2-yl)azetidine-1-carboxamide], the results for the IC50 at MRGPRX2 [1] and on MRGPRX2 [2] were greater than 1000 nM and 100 to 1000 nM, respectively. In the same order, the values of `Cc1ccc2c(NCC3(c4ccc(F)cn4)CN(C(N)=O)C3)cc(C(F)(F)F)nc2c1` [Example 61, 3-(5-Fluoropyridin-2-yl)-3-(((7-methyl-2-(trifluoromethyl)quinolin-4-yl)amino)methyl)azetidine-1-carboxamide] are greater than 1000 nM and greater than 1000 nM. With `N#Cc1cccc2c(NCC3(c4ccc(F)cn4)CN(C(N)=O)C3)cc(C(F)(F)F)nc12` [Example 64, 3-(((8-Cyano-2-(trifluoromethyl)quinolin-4-yl)amino)methyl)-3-(5-fluoropyridin-2-yl)azetidine-1-carboxamide], the IC50 on MRGPRX2 [2] is greater than 1000 nM. In turn, `Cc1cc(C)n(C2(CNc3cc(C(F)(F)F)nc4ccc(Cl)cc34)CN(C(N)=O)C2)n1` [Example 105, 3-(((6-Chloro-2-(trifluoromethyl)quinolin-4-yl)amino)methyl)-3-(3,5-dimethyl-1H-pyrazol-1-yl)azetidine-1-carboxamide] gave an IC50 on MRGPRX2 [1] of 100 to 1000 nM.
